# Data from publication PMC12749748, “Chemically-induced degradation of the endoplasmic-reticulum stress sensor IRE1 by a VHL-recruiting chimera” (Nature Communications, 2025).
# Where “and” joins values, the source holds several entries; their conditions need not be identical. Equal entries are not always repeated.
# Assays:
# TAO2 = target: T1, TAO2 (Homo sapiens, UniProt Q9UL54); assay: Immunoblot of TAO2 depletion; type: cell-based; settings: AMO1 and KMS27 cells, 4 h
# T1 construct: endogenous in cells; host or cells: AMO1, KMS27
# T1 sequence (Q9UL54 whole entry): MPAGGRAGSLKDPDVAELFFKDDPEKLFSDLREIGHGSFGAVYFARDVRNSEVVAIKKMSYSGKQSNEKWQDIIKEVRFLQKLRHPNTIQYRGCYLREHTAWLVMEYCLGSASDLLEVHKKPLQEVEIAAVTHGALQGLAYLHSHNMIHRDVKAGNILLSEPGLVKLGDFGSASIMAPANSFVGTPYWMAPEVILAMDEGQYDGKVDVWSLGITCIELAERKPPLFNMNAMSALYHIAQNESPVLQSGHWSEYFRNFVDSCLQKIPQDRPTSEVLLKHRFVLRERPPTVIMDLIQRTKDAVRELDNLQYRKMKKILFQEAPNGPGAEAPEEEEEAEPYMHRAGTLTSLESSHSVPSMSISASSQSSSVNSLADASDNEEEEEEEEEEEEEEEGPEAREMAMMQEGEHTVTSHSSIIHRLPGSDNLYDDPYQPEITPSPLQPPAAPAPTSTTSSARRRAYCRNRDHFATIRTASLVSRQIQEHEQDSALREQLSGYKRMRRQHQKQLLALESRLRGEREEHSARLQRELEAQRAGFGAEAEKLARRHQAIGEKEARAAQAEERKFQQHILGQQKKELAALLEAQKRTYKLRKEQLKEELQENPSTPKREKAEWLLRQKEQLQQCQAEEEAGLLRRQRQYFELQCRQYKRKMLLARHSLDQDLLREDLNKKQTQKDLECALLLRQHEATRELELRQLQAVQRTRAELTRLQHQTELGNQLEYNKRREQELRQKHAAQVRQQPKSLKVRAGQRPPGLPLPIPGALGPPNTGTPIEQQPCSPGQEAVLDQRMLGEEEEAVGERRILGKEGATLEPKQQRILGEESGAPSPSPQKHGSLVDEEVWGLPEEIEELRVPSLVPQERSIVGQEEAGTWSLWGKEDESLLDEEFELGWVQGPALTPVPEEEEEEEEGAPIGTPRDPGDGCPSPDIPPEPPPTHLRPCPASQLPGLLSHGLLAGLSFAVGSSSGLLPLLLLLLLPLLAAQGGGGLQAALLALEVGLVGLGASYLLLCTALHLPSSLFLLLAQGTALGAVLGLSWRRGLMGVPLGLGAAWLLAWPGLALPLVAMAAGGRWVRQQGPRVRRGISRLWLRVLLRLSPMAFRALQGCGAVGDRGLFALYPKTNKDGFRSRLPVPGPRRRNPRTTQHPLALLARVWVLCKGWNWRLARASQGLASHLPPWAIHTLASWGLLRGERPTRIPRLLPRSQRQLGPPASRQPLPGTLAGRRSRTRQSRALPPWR
# Protocol: Cells were lysed in buffer containing 20 mM HEPES 7.2, 150 mM NaCl, and 1% Triton X-100, supplemented with fresh protease and phosphatase inhibitors (Invitrogen, #78440), cleared by centrifugation at 12,000 × g for 10 min, and analyzed by BCA protein assay (Thermo Fisher Scientific, #23227). Equal protein amounts were loaded, separated by SDS-PAGE, electrotransferred to nitrocellulose membranes using the iBLOT2 system (Invitrogen), and blocked in 5% nonfat milk solution for 60 min. Membranes were probed with primary antibodies at 1:1000 dilution in 5% milk at 4 °C overnight. Signal was detected using appropriate horseradish peroxidase (HRP)-conjugated secondary antibodies at 1:10,000 in 5% milk at room temperature for 1–2 h. Bands were visualized by the Azure 600 western blot imaging system (Azure Biosystems). For in vitro ubiquitination assays performed with Me-Ub, bands were visualized by the Odyssey CLx Imager (LI‑COR) after incubating the blots with the IRDye 800CW (LI-COR) secondary antibodies at 1:10,000 in Intercept Blocking Buffer (LI-COR) at room temperature for 1–2 h. […]
# The kinome selectivity of G6374 was assessed at 1 μM for 1 h versus a panel of 220 human kinases (SelectScreen Kinase Profiling Services, Thermo Fisher Scientific). […]
# VCB (VHL:EloC:EloB) = VCB (VHL:EloC:EloB) (Homo sapiens, UniProt P40337); assay: Surface plasmon resonance, binary interaction with VCB; type: binding; settings: SPR, immobilised VCB, 20 °C, 1 to 1 kinetic model
# Chain of VCB (VHL:EloC:EloB) (P40337 whole entry): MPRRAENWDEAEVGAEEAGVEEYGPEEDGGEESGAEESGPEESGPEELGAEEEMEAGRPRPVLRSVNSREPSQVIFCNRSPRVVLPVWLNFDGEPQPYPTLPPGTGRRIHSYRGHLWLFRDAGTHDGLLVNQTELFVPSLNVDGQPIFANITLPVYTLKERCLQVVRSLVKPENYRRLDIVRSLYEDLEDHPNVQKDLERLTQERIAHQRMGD
# Chain of VCB (VHL:EloC:EloB) (Q15370 whole entry partner): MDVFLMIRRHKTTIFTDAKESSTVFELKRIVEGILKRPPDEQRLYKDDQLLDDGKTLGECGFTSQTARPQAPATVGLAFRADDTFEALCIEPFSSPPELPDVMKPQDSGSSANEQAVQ
# Chain of VCB (VHL:EloC:EloB) (Q15369 whole entry partner): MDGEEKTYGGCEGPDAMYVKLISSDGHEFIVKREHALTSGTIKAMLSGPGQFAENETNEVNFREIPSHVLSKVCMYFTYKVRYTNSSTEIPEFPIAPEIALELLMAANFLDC
# Protocol: All SPR experiments in this paper were recorded on a Biacore S200 instrument; all protein captures and data collection were at 20 °C.
# For binary interactions with G6374: a Xantec SAHC 200 M (streptavidin) chip was inserted into the instrument and primed into running buffer [50 mM HEPES (pH 7.4), 150 mM NaCl, 0.001% Tween 20, 0.2% PEG3350, 0.25 mM TCEP, and 2% DMSO]. Biotinylated human IRE1.KR protein was captured on FC2 to 2-4000 RU, biotinylated VHL in complex with Elongin B (VHL/EloB) was captured on FC4 to 1-2000 RU, data were collected, and all referenced to FC1. Affinity for G6374 was measured using a titration series, injected from low to high with an 8-point, 2-fold dilution dose response with a top concentration of 0.5 μM in both single cycle (single cycle kinetics (SCK)) and multi cycle kinetics (MCK) formats. For MCK experiments, an association time of 45 s and a dissociation time of 200 s with a flow rate of 50 μL/min. For SCK experiments, an association time of 45 s and a dissociation time of 2000 s with a flow rate of 50 μL/min were used. All data were analyzed using Insight software (Cytiva) using a 1 to 1 kinetic binding model.
# VCB [1] = target: VCB (Homo sapiens, UniProt P40337); assay: Fluorescence polarization displacement of FAM-labeled HIF-1α peptide from VCB; type: binding
# Chain of VCB (Homo sapiens, UniProt P40337) (Q15370 whole entry): as the sequence (Q15370 whole entry partner) above
# Chain of VCB (Homo sapiens, UniProt P40337) (Q15369 17-112, further chain): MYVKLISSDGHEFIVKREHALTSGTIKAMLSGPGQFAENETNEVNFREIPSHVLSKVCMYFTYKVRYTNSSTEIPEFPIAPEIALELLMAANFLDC
# Chain of VCB (Homo sapiens, UniProt P40337) (P40337 55-213): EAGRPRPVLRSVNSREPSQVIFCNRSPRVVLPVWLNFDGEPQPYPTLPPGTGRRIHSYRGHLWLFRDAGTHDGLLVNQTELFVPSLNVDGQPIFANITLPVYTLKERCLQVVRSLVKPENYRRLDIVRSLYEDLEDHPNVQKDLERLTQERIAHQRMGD
# Protocol: (§1) Assays were performed in duplicates on ProxiPlate-384 F Plus (Revvity, #6008260) with a total well volume of 16 µL. Each well contained 50 nM of FAM-labeled HIF-1α peptide (FAM-DEALA-Hyp-YIPD, biotechne, #7287), 500 nM of VCB protein, and a titration of G6374 (2-fold serial dilutions from […] to 625 nM, then 1.3-fold serial dilutions to 284.5 nM, followed by 2-fold serial dilutions to 8.9 nM) or IRE1.KR:G6374 (constant concentration of 2.4 µM IRE1.KR and the same serial dilution of G6374 as mentioned above) in 50 mM HEPES pH 7.2, 100 mM NaCl, 1 mM TCEP, and 0.002% Tween 20 with a final concentration of DMSO of 1.5%. The plate was incubated at room temperature in the dark, first for 5 min on a shaker at 300 rpm, then for another 30 min on the bench. FP was measured using the EnVision Multimode Plate Reader (PerkinElmer) with fluorescence excitation and emission wavelengths of 480 nm and 535 nm. The percentage of HIF-1α displacement was calculated by normalization to maximum fluorescence anisotropy (or 0% displacement of the HIF-1α peptide) and minimum fluorescence anisotropy (or 100% displacement of the HIF-1α peptide), which were determined by “top” and “bottom” values of the curve fit of fluorescence anisotropy against G6374 concentration in GraphPad Prism 10 (GraphPad Software, Inc.). The IC50 values were then determined by curve fitting with the percentage of HIF-1α displacement against G6374 concentration in GraphPad Prism 10 (GraphPad Software, Inc.).
# VCB [2] = assay: as above; type: binding; settings: ratio between IC50 of VCB: G6374 and VCB: (G6374 + IRE1)
# Protocol: as §1
smiles,measurement,setting,value
Cc1ncsc1-c1ccc(CNC(=O)[C@@H]2C[C@@H](O)CN2C(=O)[C@@H](NC(=O)CCCCN2CCN([C@H]3CC[C@H](Nc4ncc5ccc(=O)n(C(C)C)c5n4)CC3)CC2)C(C)(C)C)cc1 [G6374],depletion of TAO2,TAO2,did not deplete TAO2
same,Kd,VCB (VHL:EloC:EloB),90.2 nM
same,kd,VCB (VHL:EloC:EloB),0.0477 s⁻¹
same,kon,VCB (VHL:EloC:EloB); read-out: ka,514000 M⁻¹ s⁻¹
same,IC50,"VCB [1]; G6374 alone, absence of IRE1, N=3, mean ± SEM",2480 ± 112 nM
same,IC50,"VCB [1]; G6374 in the presence of saturating IRE1 (2.4 µM), N=3, mean ± SEM",492 ± 21 nM
same,Cooperativity alpha,VCB [2],5 and 5 ± 0.15
